Source: patent US9145352B2, “Quaternary N-(halomethyl) ammonium salts as therapeutic agents” (UNIVERSIDAD DE CALDAS, priority 2012, dated 2015)
Like-named read-outs stand apart in the source and are kept apart here. Blank lines part the entries; values can stand above or below the compound they belong to.

How the values were obtained:
[1] = test system: cutaneous leishmaniasis lesion; assay: golden hamster model for cutaneous leishmaniasis; assay type: in vivo; conditions: topical application in aqueous buffer (neutral pH) daily for ten days
Description: It was decided then to carry out a preliminary in vivo animal study according to standard practices using the golden hamster model for cutaneous leishmaniasis, using the compounds with the better profile as therapeutic agents against leishmaniasis. For that purpose the in vivo effectiveness of compounds 3b, 13b and 14c were tested FIG. 6.
It was decided then to carry out a small in vivo animal study according to standard practices using the golden hamster model for cutaneous leishmaniasis. For that purpose the in vivo effectiveness of compounds 3b, 13b and 14c were tested. Treatment consisted of a topical application of the compound suspended in an aqueous buffer (neutral pH) daily for ten days.

[2] = test system: axenic amastigotes of L. (V) panamensis; assay: in vitro effectiveness against axenic amastigotes of L. (V) panamensis; assay type: cell-based
Source text: Then, a series of compounds analogous to compound 3 (characterized by a tail G being a diarylalkenyl moiety) were synthesized in order to assess their in vitro effectiveness against L. (V) panamensis, a pathogenic species which causes human mucocutaneous leishmaniasis. Other halogenated analogs of choline were also synthesized and included in this in vitro effectiveness study. FIG. 2 illustrates the compounds evaluated for their in vitro effectiveness against axenic amastigotes of L. (V) panamensis.
The table shown in FIG. 7 contains the EC50 values (molar amount of compound that kills 50% of parasites in sample) obtained against axenic amastigotes of L. (V) panamensis. […] N-(HALOMETHYL) AMMONIUM SALTS AS […] AGENTS were compared with the respective non-halogenated (i.e. N,N,N-trimethyl quaternary ammonium salts) and with two compounds commonly used to treat leishmaniasis (meglumine antimoniate and amphotericin B).

[3] = test system: choline kinase of L. (L) infantum; assay: kinetic studies with choline kinase; assay type: biochemical; conditions: lowering its catalytic efficiency
Source text: (§1) Phosphatidyl choline can be synthesized by the parasite following the traditional Kennedy pathway (Zhang and Beverley, 2010), in which choline is converted to phosphatidyl choline via a sequence of steps, each catalyzed by a specific enzyme. The first step involves the phosphorylation of choline with the enzyme choline kinase.

[4] = test system: promastigotes of L. tarentolae; assay: in vitro uptake of choline by promastigotes; assay type: cell-based
Source text: as §1

[5] = test system: promastigotes of L. tarentolae; assay: in vitro production of phosphatidyl choline by parasites; assay type: cell-based
Source text: as §1

[6] = test system: amastigotes of L. (V) panamensis that have infected macrophage cells; assay: in vitro effectiveness against L. (V) panamensis amastigotes that have infected macrophage cells; assay type: cell-based
Description: Given that Leishmania parasites are known to infect monocyte cells, mostly macrophages and neutrophils, the in vitro effectiveness of some of the compounds was also tested on L. (V) panamensis in the amastigote stage that have been set to infect macrophage cells. FIG. 5 contains the list of compounds evaluated.
On the other hand, the results of the in vitro activity study of some […] N-(HALOMETHYL) AMMONIUM SALTS AS […] AGENTS shown in FIG. 5 against infected macrophage cells with Leishmania panamesis are shown in FIG. 8.

Indian visceral disease = conditions: cited from earlier work
Chagas disease = conditions: given soon after infection at the onset of the acute phase; cited from earlier work
L. major promastigotes = conditions: cited from earlier work

Compound: C[N+](C)(CCl)CCC=C(c1ccccc1)c1ccccc1 [Compound 13b]
cure of animals [1]: cure of the majority of the animals

inhibition of choline kinase [3]: able to inhibit this enzyme
Compound: C[N+](C)(CI)CCCCC=C(c1ccccc1)c1ccccc1 [Compound 14a]
relative effectiveness against axenic amastigotes of L. (V) panamensis ([2]; FIG. 7): the most effective
uptake of choline by promastigotes [4]: interferes with the in vitro uptake of choline
production of phosphatidyl choline [5]: inhibits the in vitro production of phosphatidyl choline

EC50 [2]: 0.041 ± 0.001 µM
Compound: C[C@@H]1[C@H](O)[C@@H](C)/C=C/C=C/C=C/C=C/C=C/C=C/C=C/[C@H](O[C@@H]2O[C@H](C)[C@@H](O)[C@H](N)[C@@H]2O)C[C@@H]2O[C@](O)(C[C@@H](O)C[C@@H](O)[C@H](O)CC[C@@H](O)C[C@@H](O)CC(=O)O[C@H]1C)C[C@H](O)[C@H]2C(=O)O [amphotericin B]
EC50 against infected macrophage cells with L. (V) panamensis [6]: 0.05 ± 0.001 µg/mL
effective against the Indian visceral disease (Indian visceral disease; dose of 5-10 mg/kg): 90%
effective against the Indian visceral disease (Indian visceral disease; total dose of 15 mg/kg body weight): 100%

Compound: O=C(Cn1ccnc1[N+](=O)[O-])NCc1ccccc1 [benznidazole]
effective in curing the disease (Chagas disease): ~100%

Compound: CCCCCCCCCCCC[N+](C)(C)C.[Br-] [dodecyltrimethyl ammonium bromide]
growth of L. major promastigotes (L. major promastigotes): inhibit the growth

Compound: CCCCCCCCCCCCCCCCCC[N+](C)(C)C.[Br-] [octadecyltrimethyl ammonium bromide]
growth of L. major promastigotes (L. major promastigotes): inhibit the growth

Compound: meglumine antimoniate
EC50 [2]: 312 ± 18.6 µM
EC50 against infected macrophage cells with L. (V) panamensis [6]: 6.33 ± 0.86 µg/mL
